Laboratory results taken from patent publication US20020001582A1, “Methods and compositions for inhibiting microbial growth” (priority 1999, published 2002).

Key:
[1] = test system: Pythium torrulesum (IM193); assay: Inhibition of Pythium by lysozyme in PD broth, % plate coverage; format: cell-based; settings: for fungal coverage of the plates: end of 2 weeks
Protocol: (§1) Potato dextrose broth was prepared, poured into glass dilution bottles (100 ml each), autoclaved and allowed to cool. […] A fungal square (plug) of each culture was cut and placed in/near the center of each plate. Fungal growth was quantified by measuring the diameter of growth of each fungus while it was growing on the liquid media in each petri dish using a ruler. Each treatment was done in triplicate.
(§2) The experiment was repeated three times (three batches). The observation period for each batch was 2 weeks.
(§3) The fungal growth was expressed in % coverage of the petri dishes by the fungal patches. The calculation can be presented in the following equation:
(§4) Fungal growth (%)=(area of fungal patch/total plate area)×100

[2] = test system: Pythium sylvaticom (IM195); assay: as above; format: cell-based
Protocol: as §1, §2, §3, §4

S. homoeocarpa = assay: Suppression of fungal disease on young bentgrass, greenhouse trial; format: in vivo
Protocol: (§5) Creeping bentgrass (Agrotis spp.) cv. Penncross was used as the host in the greenhouse trials. This species is widely used in golf greens and is easily managed under greenhouse conditions. Bentgrass was seeded in 6 cm diameter and 5 cm height pots (made from PVC pipes) containing steam sterilized river washed sand. A seeding rate of 0.1 g/pot was used to ensure rapid establishment of a uniform, dense stand. Throughout the experiment, the grass was regularly watered, fertilized and maintained at a cutting height approximately 2.0 cm above the soil surface.
(§6) Virulent isolates of test fungi were grown on a rye grain medium for approximately one week. This medium consisted of 50 g of rye grain, 1 g of CaCO3, and 75 ml of water. It was prepared in a 250 ml Erlenmeyer flask and autoclaved for 30 minutes. Three to five plugs of the actively growing mycelia from week old cultures on potato dextrose agar were transferred into flasks, and incubated in the dark at room temperature.
(§7) Pots of eight-week-old bentgrass were inoculated with the test fungi by placing 2-3 kernels of infected rye in the center of the grass area, just above the soil surface. After inoculation, pots were placed in humidity chambers on a greenhouse bench. Temperature during incubation was maintained at 27-30° C. for disease development and the growth of the test fungi.
(§8) Approximately 1.6-2.4 ml was applied to each pot and the treatment was repeated 24 hours later. Untreated bentgrass was used as a control. All treatments were replicated 8 times and arranged in a completely randomized design. This trial was repeated three times.

G. graminis = assay: as above; format: in vivo; settings: 5,000 and 10,000 ppm
Protocol: as §5, §6, §7, §8

IM114 (Monilinia) = assay: Inhibition of Monilinia by lysozyme in PD broth, % plate coverage; format: cell-based
Protocol: as §1, with “Monilinia was grown in petri dishes on PD agar. Potato” for “Potato”, “with triplicates. The experiment was repeated three times (three batches). The observation period for each batch was 2 weeks.” for “in triplicate.”
(§9) The fungal growth was expressed in % coverage of the petri dishes by the fungal patches. The calculation is presented in the following equation:
as §4
(§10) The average plate coverage for the treatments was plotted against the time after inoculation (FIGS. 20 and 21). Statistical analysis was carried out using SigmaStat (Version 2.0, SPSS Science, 1997).

IM115 (Monilinia) = assay: as above; format: cell-based
Protocol: as §1, with “Monilinia was grown in petri dishes on PD agar. Potato” for “Potato”, “with triplicates. The experiment was repeated three times (three batches). The observation period for each batch was 2 weeks.” for “in triplicate.”
as §9, §4, §10

[3] = test system: Gaeumannomyces graminis var.avenae (IM084); assay: Minimum effective treatment concentration, fungal plug in 1/5 potato dextrose broth; format: cell-based
Protocol: (§11) Fungal cultures isolated from turfgrass were collected from different sources including B.C. Ministry of Agriculture, Fisheries and Food and ATCC.
(§12) ⅕ potato dextrose broth was prepared and autoclaved in Erlenmeyer flasks and allowed to cool. Different amounts of egg white lysozyme (Canadian Inovatech, Inc., B.C.) was weighed out and added directly into the flasks. Ten milliliters of broth was dispensed into sterile petri dishes.
(§13) A fungal square (“plug”) of each culture was cut and placed in/near the center of each plate. The petri dishes were then incubated at 22-25° C. During incubation, the petri dishes were evaluated individually by measuring the diameter of fungal growth.

[4] = test system: Gaeumannomyces graminis 97-923 (IM099); assay: as above; format: cell-based
Protocol: as §11, §12, §13

[5] = test system: Gaeumannomyces graminis 97-923 (IM100); assay: as above; format: cell-based
Protocol: as §11, §12, §13

[6] = test system: Sclerotinia homoeocarpa (IM088); assay: as above; format: cell-based
Protocol: as §11, §12, §13

[7] = test system: Typhula incarnata (IM086); assay: as above; format: cell-based
Protocol: as §11, §12, §13

[8] = test system: Fusarium (IM095, Turfgrass isolate); assay: as above; format: cell-based
Protocol: as §11, §12, §13

Curvularia (Poa) (IM094) = assay: as above; format: cell-based
Protocol: as §11, §12, §13

Sclerotinia homoeocarpa = assay: Inhibition of Sclerotinia homoeocarpa in potato dextrose broth (area of growth); format: cell-based; settings: 2 weeks after the inoculation
Protocol: Potato dextrose broth was prepared. Fifty ml of the PD broth was added into 100 ml dilution bottles, autoclaved and cooled to room temperature. Various amounts of lysozyme, chitosan, polylysine and avidin were weighed into the bottles. Ten ml of the PD broth with or without the antimicrobials was transferred into sterile petri dishes. A plug of Sclerotinia homoeocarpa (about 6-10 mm square) grown on PD agar was placed into the center of each petri dish. These treatments were all done in triplicates. Fungal growth was monitored by measuring the area of the growth.

[9] = test system: Phytophthora cinnamomi (IM194); assay: Inhibition of Phytophthora by lysozyme in PD broth, % plate coverage; format: cell-based; settings: for fungal growth (% plate coverage): 2 weeks after inoculation
Protocol: as §1, §2, §3, §4

lysozyme: type c egg white lysozyme, enzyme of approximately 129 amino acids; commercially available from Canadian Inovatech, Inc.
fungal coverage of the plates ([1]; 50 ppm): 80% | fungal coverage of the plates ([1]; 100 ppm): 80% | fungal growth compared with 100, 50 or 0 ppm (Tukey test) ([1]; 250, 500 or 1000 ppm, p<0.05): significantly lower | fungal coverage of the plates ([1]; 250 ppm): 51% | fungal coverage of the plates ([1]; 500 ppm): 25% | fungal coverage of the plates ([1]; 1000 ppm): 14% | fungal growth (% plate coverage) ([2]; 50 ppm): 86% | fungal growth (% plate coverage) ([2]; 100 ppm): 51% | fungal growth compared with 100, 50 or 0 ppm (Tukey test) ([2]; 250, 500 or 1000 ppm, p<0.05): significantly lower | fungal growth (% plate coverage) ([2]; 250 ppm): 15% | fungal growth (% plate coverage) ([2]; 500 ppm): 7% | fungal growth (% plate coverage) ([2]; 1000 ppm): 6% | S. homoeocarpa inhibition compared to the untreated control (S. homoeocarpa; 2,500, 5,000 and 10,000 ppm sprayed 24 and 48 h after inoculation, day 7, 14 and 21): significant S. homoeocarpa inhibition | infection compared with bentgrass treated with 2,500 ppm (S. homoeocarpa; 5,000 and 10,000 ppm, day 14 and 21 after inoculation): significantly less infection | control against G. graminis (G. graminis): good control | concentration that can significantly inhibit the growth for at least 2 weeks (IM114 (Monilinia); in general, in vitro, PD broth): 250-500 ppm | concentration showing significant fungal growth reduction (IM114 (Monilinia); p<0.05): 100 ppm | concentration that can significantly inhibit the growth for at least 2 weeks (IM115 (Monilinia); in general, in vitro, PD broth): 250-500 ppm | concentration showing significant fungal growth reduction (IM115 (Monilinia); p<0.05): 100 ppm | Comment ([3]; 500 ppm, 13 day): Excellent | Minimum effective treatment concentration of lysozyme ([3]; duration of trial 13 day): 500 ppm | Comment ([4]; 1000 ppm, 21 day): Excellent | Minimum effective treatment concentration of lysozyme ([4]; duration of trial 21 day): 1000 ppm | Comment ([5]; 1000 ppm, 21 day): Excellent | Minimum effective treatment concentration of lysozyme ([5]; duration of trial 21 day): 1000 ppm | Comment ([6]; 1000 ppm, 21 day): Fair-good | Minimum effective treatment concentration of lysozyme ([6]; duration of trial 21 day): 1000 ppm | Comment ([7]; 1000 ppm, 21 day): Excellent | Minimum effective treatment concentration of lysozyme ([7]; duration of trial 21 day): 1000 ppm | Comment ([8]; 250 ppm, 25 day): Excellent | Minimum effective treatment concentration of lysozyme ([8]; duration of trial 25 day): 250 ppm | Comment (Curvularia (Poa) (IM094); 1000 ppm, 21 day): Fair-good | Minimum effective treatment concentration of lysozyme (Curvularia (Poa) (IM094); duration of trial 21 day): 1000 ppm | reduction of fungal growth (Sclerotinia homoeocarpa; 1000 ppm): 35% | reduction of fungal growth (Sclerotinia homoeocarpa; 2000 ppm): about 55% | fungal growth (% plate coverage) ([9]; 50 ppm): 50% | fungal growth (% plate coverage) ([9]; 100 ppm): 35% | fungal growth compared with 100, 50 or 0 ppm (Tukey test) ([9]; 250, 500 or 1000 ppm, p<0.05): significantly lower | fungal growth (% plate coverage) ([9]; 250 ppm): 7% | fungal growth (% plate coverage) ([9]; 500 ppm): 4%
